In US11028084B2, “Selective inhibitors of gentotoxic steress-induced IKK/NF-κB pathways” (Max-Delbrück-Centrum für Molekulare Medizin in der …, priority 2016, dated 2021):

Key:
[1] = tested on: genotoxic stress-initiated NF-κB signaling cascade; assay: Time course of IκBα, p65, IKK and TAK1 phosphorylation after γ-IR, WB, U2OS cells; format: cell-based, human
Description: (§1) FIG. 6: (A) U2OS cells were pre-treated with DMSO or MW01 and irradiated. Stimulation of cell with IL-1β served as a positive control for IκBα and p65 phosphorylation. Cells were lysed at indicated time points and used for WB analyses. (B,C) Similar experimental setup as in (A). (D) Experiment as in (A-C), but with other time points analysed and performed with HepG2 cells. PARP1 and LDH serve as loading controls.

[2] = tested on: TNFα-induced NF-κB activation; assay: NF-κB DNA binding activity (EMSA) after TNFα stimulation, HEK293 cells; format: cell-based, human
Method: FIG. 4: (A) U2OS cells were pre-treated with increasing concentrations of MW01 in triplicates in a 384 well plate. Then, cells were treated with TNFα, fixed and subjected to IF staining of p65. Spatial measurement of p65 cytosolic and nuclear signals was used for the calculation of p65 translocation rates. (B) U2OS cells were pre-treated with MW01 at concentrations of 10 or 20 μM and stimulated with TNFα. Cell lysates were subjected to SDS-PAGE/WB. (C) HEK293 cells were pre-treated with DMSO or MW01 followed by administration of etoposide or TNFα. Cell lysates were used for EMSA.
For the activation of the canonical NF-κB pathway cells were treated with recombinant human TNFα (10 ng/ml) or IL-1β (10 ng/ml) for 20-30 min at 37° C.
Nuclear or whole cell lysates were incubated with a ^32P-labeled NF-κB DNA-[…]

[3] = tested on: IKKγ phosphorylation at S85; assay: IKKγ S85 phosphorylation after irradiation, WB, HEK293 cells; format: cell-based; settings: HEK293 (human)
Method: (§2) FIG. 11: (A) HEK293 cells were pre-incubated with DMSO, MW01 or ATM inhibitor KU55933 and irradiated. Lysates were subjected to SDS-PAGE/WB. The specific IKKγ S85 band (lower band) was identified by induction following irradiation and by sensitivity to ATMi and λ-phosphatase (λ-PP) treatment. The asterisk indicates a non-specific band that was neither inducible nor ATMi sensitive. (B) Experiment was done as shown in (A) using MEF cells. (C) HEK293 cells were pre-treated with DMSO or MW01, irradiated and lysed. Lysates were used to immunoprecipitate IKKγ using an IKKγ antibody.

IKKγ mono-ubiquitination = IKKγ mono-ubiquitination after irradiation, IKKγ immunoprecipitation, HEK293 cells; format: cell-based, human
Method: as §2
Following cell lysis the protein concentration of samples was determined. For input controls, 40 μg lysate were mixed with 6×SDS-buffer and denatured by heating to 95° C. for 4 min. Approximately 1500 μg protein lysate was used for pulldown and samples volumes were equalled with lysis buffer. Lysates were precleared with 30 μl sepharose A or sepharose G beads (depending on the antibody type used for pulldown) for 30 min, and centrifuged for 5 min at 1,500×g. The supernatant was transferred to a new reaction tube. Primary antibody (2-2.5 μg) was added to the cleared lysate for immunoprecipitation overnight while rotating at 4° C. The next day 30 μl sepharose beads per sample were used for immobilisation of antibodies. […]

[4] = tested on: IKKγ phosphorylation at S85; assay: IKKγ S85 phosphorylation after irradiation, WB, MEF cells; format: cell-based, mouse; settings: MEF (murine)
Method: as §2

[5] = target: nuclear IKKγ-PIASy-PARP1-ATM signalosome (Homo sapiens, UniProt P09874+Q13315+Q8N2W9+Q9Y6K9); assay: Nuclear PARP1-signalosome formation, co-immunoprecipitation, HepG2 cells; format: cell-based; design: endogenous in cells
nuclear IKKγ-PIASy-PARP1-ATM signalosome (Homo sapiens, UniProt P09874+Q13315+Q8N2W9+Q9Y6K9), sequence (Q9Y6K9 whole entry): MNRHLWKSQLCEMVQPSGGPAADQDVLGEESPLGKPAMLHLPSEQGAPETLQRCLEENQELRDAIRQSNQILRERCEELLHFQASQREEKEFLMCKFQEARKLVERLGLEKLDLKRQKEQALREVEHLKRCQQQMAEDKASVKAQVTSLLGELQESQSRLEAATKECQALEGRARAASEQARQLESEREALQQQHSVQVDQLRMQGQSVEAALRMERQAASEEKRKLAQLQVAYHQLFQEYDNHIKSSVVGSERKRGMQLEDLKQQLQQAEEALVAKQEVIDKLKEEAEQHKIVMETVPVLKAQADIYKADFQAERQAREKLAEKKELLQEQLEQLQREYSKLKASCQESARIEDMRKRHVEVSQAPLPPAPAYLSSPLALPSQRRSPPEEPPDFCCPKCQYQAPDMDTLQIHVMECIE
nuclear IKKγ-PIASy-PARP1-ATM signalosome (Homo sapiens, UniProt P09874+Q13315+Q8N2W9+Q9Y6K9), sequence (Q8N2W9 2-510 limits assumed): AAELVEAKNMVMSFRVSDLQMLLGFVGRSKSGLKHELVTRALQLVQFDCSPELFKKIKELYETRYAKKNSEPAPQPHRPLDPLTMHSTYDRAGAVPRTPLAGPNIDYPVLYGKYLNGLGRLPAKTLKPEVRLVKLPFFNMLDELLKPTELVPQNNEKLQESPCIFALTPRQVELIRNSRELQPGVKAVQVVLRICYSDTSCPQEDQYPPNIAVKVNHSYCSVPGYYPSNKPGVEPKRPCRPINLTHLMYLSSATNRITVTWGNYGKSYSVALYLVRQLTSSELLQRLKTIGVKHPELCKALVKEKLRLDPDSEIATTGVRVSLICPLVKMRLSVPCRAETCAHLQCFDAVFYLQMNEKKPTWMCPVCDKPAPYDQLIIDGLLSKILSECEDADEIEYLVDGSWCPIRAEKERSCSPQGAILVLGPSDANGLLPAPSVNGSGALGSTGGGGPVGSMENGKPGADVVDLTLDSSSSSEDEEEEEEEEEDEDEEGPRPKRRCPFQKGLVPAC
nuclear IKKγ-PIASy-PARP1-ATM signalosome (Homo sapiens, UniProt P09874+Q13315+Q8N2W9+Q9Y6K9), sequence (P09874 2-1014 limits assumed): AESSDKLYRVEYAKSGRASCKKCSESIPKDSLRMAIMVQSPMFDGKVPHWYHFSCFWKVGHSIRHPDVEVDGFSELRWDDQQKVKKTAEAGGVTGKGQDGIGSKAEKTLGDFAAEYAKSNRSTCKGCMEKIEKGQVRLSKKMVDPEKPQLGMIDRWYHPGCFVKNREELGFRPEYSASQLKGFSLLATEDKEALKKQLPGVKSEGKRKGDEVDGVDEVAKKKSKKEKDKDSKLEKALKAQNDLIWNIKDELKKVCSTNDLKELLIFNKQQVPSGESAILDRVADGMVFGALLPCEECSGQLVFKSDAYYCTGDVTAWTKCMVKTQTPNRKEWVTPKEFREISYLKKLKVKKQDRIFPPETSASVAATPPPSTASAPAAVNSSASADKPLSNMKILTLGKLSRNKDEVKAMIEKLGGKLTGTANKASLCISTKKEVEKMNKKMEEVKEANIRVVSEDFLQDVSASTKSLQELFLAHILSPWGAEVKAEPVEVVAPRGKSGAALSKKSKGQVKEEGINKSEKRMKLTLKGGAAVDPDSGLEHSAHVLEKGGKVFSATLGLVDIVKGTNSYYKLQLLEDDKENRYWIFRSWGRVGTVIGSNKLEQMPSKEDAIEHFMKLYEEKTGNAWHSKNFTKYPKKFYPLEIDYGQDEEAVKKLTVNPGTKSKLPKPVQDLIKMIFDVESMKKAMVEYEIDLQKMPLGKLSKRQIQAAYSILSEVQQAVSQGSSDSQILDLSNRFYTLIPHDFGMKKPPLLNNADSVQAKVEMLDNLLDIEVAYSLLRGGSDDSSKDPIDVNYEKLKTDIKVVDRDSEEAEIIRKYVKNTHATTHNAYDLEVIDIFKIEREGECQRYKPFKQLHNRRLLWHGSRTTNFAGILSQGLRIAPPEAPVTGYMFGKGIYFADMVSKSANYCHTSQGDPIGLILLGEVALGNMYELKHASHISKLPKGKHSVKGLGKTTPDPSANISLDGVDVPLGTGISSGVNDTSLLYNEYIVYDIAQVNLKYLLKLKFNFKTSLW
nuclear IKKγ-PIASy-PARP1-ATM signalosome (Homo sapiens, UniProt P09874+Q13315+Q8N2W9+Q9Y6K9), sequence (Q13315 2-3056 limits assumed): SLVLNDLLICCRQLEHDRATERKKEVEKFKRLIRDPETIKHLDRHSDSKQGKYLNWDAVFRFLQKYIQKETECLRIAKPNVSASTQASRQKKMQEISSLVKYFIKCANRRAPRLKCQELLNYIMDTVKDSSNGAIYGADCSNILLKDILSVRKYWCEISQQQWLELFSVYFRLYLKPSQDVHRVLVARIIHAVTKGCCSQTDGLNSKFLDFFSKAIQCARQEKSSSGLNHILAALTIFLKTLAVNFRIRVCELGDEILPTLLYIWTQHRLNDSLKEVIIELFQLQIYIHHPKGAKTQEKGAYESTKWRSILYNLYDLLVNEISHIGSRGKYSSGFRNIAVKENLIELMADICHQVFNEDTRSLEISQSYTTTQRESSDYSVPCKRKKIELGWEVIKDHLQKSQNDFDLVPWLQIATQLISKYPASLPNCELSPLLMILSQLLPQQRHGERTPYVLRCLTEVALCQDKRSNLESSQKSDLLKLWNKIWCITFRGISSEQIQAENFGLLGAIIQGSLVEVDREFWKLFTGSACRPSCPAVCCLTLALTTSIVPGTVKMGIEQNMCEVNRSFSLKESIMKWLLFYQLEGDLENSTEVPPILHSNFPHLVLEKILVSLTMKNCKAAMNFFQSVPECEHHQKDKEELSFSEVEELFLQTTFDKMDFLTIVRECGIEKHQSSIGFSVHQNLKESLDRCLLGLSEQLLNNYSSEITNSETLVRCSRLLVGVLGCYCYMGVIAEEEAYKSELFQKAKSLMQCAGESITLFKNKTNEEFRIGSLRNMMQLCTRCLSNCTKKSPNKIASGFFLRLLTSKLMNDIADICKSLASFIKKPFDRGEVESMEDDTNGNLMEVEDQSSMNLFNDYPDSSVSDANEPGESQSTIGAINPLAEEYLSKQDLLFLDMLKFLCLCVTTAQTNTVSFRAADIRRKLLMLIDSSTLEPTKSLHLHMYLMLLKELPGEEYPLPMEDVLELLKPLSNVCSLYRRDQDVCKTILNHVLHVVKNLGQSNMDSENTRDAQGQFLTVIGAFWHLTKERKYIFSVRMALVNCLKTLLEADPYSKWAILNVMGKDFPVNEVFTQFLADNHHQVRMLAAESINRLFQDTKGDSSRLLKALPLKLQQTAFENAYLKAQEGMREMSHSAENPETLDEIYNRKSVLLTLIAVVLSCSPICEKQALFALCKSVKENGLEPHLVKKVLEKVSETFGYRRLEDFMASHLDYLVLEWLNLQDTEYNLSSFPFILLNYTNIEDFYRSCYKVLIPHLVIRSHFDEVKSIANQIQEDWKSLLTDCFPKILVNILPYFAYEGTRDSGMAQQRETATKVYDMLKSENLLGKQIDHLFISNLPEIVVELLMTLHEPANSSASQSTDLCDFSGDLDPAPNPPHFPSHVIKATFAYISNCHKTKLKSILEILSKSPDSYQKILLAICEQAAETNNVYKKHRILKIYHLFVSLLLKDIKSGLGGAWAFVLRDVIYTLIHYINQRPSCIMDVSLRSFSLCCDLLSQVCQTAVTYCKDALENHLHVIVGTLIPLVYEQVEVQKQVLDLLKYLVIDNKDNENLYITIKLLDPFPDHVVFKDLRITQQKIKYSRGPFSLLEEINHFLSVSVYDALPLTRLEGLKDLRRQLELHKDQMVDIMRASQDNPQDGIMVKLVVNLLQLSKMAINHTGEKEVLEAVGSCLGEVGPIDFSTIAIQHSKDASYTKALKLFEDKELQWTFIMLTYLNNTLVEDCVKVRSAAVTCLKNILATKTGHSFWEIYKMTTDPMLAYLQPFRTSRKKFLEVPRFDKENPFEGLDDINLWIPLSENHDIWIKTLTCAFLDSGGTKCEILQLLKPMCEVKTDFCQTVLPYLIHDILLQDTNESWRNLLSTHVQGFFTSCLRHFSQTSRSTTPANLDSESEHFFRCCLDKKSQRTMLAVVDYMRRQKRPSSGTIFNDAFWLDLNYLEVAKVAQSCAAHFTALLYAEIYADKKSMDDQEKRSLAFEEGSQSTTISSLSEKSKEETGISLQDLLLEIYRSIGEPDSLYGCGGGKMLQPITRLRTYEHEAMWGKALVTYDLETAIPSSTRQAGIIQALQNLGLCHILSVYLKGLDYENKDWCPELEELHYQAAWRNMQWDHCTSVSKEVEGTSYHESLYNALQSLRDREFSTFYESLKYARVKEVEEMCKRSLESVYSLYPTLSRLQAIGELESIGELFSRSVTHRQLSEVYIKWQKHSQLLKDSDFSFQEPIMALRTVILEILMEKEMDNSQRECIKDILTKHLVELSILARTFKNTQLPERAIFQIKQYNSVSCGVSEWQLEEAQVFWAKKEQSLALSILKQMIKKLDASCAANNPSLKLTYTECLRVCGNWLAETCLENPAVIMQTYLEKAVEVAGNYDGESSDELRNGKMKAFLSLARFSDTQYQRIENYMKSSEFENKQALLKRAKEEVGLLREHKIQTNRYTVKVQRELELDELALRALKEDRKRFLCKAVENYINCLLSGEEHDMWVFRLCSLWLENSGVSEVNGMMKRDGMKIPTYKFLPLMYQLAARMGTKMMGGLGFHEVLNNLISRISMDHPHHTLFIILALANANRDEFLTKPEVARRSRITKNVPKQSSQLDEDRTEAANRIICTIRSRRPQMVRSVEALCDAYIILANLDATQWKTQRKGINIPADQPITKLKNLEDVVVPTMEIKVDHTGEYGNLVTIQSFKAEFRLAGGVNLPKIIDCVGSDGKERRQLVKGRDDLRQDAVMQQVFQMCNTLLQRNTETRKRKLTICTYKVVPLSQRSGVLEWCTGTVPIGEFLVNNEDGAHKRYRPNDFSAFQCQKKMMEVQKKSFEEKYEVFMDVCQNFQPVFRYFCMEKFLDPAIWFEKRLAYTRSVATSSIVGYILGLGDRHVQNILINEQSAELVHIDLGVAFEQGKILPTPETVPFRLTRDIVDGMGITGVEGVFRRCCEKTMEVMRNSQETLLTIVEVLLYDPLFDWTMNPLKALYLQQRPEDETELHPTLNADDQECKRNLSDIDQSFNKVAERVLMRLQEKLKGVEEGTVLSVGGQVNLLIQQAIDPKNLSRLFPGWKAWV
Method: (§3) FIG. 8: (A) HepG2 cells were pre-treated with DMSO or MW01 and irradiated. Nuclear cell extracts (NE) were used for PIASy immunoprecipitation (IP). Western blot membranes were incubated with indicated antibodies. (B) Experiment as shown in (A), but with IKKγ IP. (C) Experiment as shown in (B), but done in HEK293 cells. (D) Experiment done as shown in […], but repeated in MEF cells.
(§4) Following cell lysis the protein concentration of samples was determined. For input controls, 40 μg lysate were mixed with 6×SDS-buffer and denatured by heating to 95° C. for 4 min. Approximately 1500 μg protein lysate was used for pulldown and samples volumes were equalled with lysis buffer. Lysates were precleared with 30 μl sepharose A or sepharose G beads (depending on the antibody type used for pulldown) for 30 min, and centrifuged for 5 min at 1,500×g. The supernatant was transferred to a new reaction tube. Primary antibody (2-2.5 μg) was added to the cleared lysate for immunoprecipitation overnight while rotating at 4° C. The next day 30 μl sepharose beads per sample were used for immobilisation of antibodies. Following 4 washes with IP wash buffer precipitated proteins were eluted by mixing with 3×SDS-buffer and heating to 95° C. for 4 min.

[6] = tested on: genotoxic stress-activated NF-κB signaling; assay: TAK1 and p65 S536 phosphorylation after γ-irradiation, WB, HepG2 cells; format: cell-based, human
Method: as §1
FIG. 9: HepG2 cells were pre-incubated with DMSO, MW01 (5 μM) or the ATM inhibitor Ku55933 (10 μM) and irradiated. After 60 min cells were harvested and processed. Immunochemical staining of Western blotting membranes was done using indicated antibodies.
(§5) FIG. 14: (A) U2OS cells were pre-treated with different concentrations of olaparib prior to co-treatment with etoposide. Whole cell lysis was performed after 90 min and cleared lysates were used for WB with indicated antibodies. (B) U2OS cells were pre-treated with DMSO, olaparib or the ATM inhibitor Ku55933 and co-treated with etoposide. Cells were harvested after 45 min and subjected to SDS-PAGE/WB. Membranes were stained with the indicated antibodies. The experiment of (B) was performed simultaneously to the experiments of (A) and (E) to control functionality of olaparib in inhibiting PAR chain formation. (C) Densitometrical analyses of (A) and two further independent experiments done as shown in (A). (D) U2OS cells were pre-treated with the substances as indicated prior to irradiation. After 90 min mRNA was isolated, transcribed into cDNA and was used for expression analyses of the indicated genes using quantitative real-time PCR (qRT-PCR). (E) HepG2 cells were pre-treated with the PARP inhibitors olaparib, 3-AB and EB-47 prior to γ-irradiation. Cells were harvested after 15 and 90 min and subjected to SDS-PAGE/WB. Membranes were stained with the indicated antibodies. Error bars equal SEM.

[7] = target: T1, nuclear IKKγ-PIASy-PARP1-ATM signalosome (Mus musculus, UniProt O88522+P11103+Q62388+Q9JM05); assay: Nuclear PARP1-signalosome formation, IKKγ co-immunoprecipitation, MEF cells; format: cell-based; settings: irradiation
T1 construct: endogenous in cells; host or cells: MEF (mouse embryonic fibroblasts)
Method: as §3, §4

PARP1 = PARP1 (Homo sapiens, UniProt P09874); assay: PARP1 enzymatic activity, PAR chain formation, U2OS cells; format: cell-based; design: Experiment performed as described for (A), but using U2OS cells; endogenous in cells; host or cells: U2OS; settings: γ-irradiation
Method: FIG. 10: (A) MEF cells were pre-treated with the indicated substances, irradiated and cell lysates were used for poly(ADP)-ribose probing using a specific antibody. (B) Experiment performed as described for (A), but using U2OS cells.
as §5, with “Membranes were stained with the indicated antibodies. Error bars equal SEM.” left out

COc1ccc2c(c1OC)c(=O)n1c3ccc(O)cc3c3ccnc2c31 [MW01, 12-hydroxy-6,7-dimethoxy-8H-benzo[c]indolo[3,2,1-ij][1,5]naphthyridin-8-one]
TAK1 phosphorylation ([1]; 45 and 60 min following irradiation): strongly inhibited
IκBα phosphorylation ([1]; 45 min and 60 min after γ-IR): complete inhibition
p65 S536 phosphorylation ([1]; 45 min and 60 min after γ-IR): inhibited
IKK phosphorylation ([1]; 90 min after irradiation): abolished
induced NF-κB DNA binding activity upon TNFα stimulation [2]: did not interfere with induced NF-κB DNA binding activity
phosphorylation of IKKγ at S85 [3]: abolished
IKKγ mono-ubiquitination (IKKγ mono-ubiquitination): abolishment
phosphorylation of IKKγ at S85 [4]: abolished
co-immunoprecipitation of PARP1 with IKKγ ([5]; HepG2, IKKγ IP): not co-immunoprecipitated
γ-irradiation-induced Co-IP of phosphorylated ATM-51981 species with PIASy ([5]; HepG2 nuclear extracts, PIASy IP): lost after pre-treatment with MW01
p65 S536 phosphorylation level ([6]; HepG2, 5 μM, irradiated, 60 min): drastically reduced
TAK1 and p65 phosphorylation ([6]; HepG2, γ-IR): abolished
interaction of IKKγ with PARP1, p-ATM S1981 or PIASy [7]: abrogation of the interaction
PAR chain formation / PARP1 enzymatic activity (PARP1): did not interfere with activation of PARP1 enzymatic activity
